# Experiments:
# Format in all cases: functional
# Details in all cases: read-out: ED50 (the source's name)
# SK-MEL-5 = assay: Cytotoxicity against human SK-MEL-5 cells
# COLO 205 = assay: Cytotoxicity against human COLO205 cells
# KB = assay: Cytotoxicity against human KB cells
Structure (SMILES),EC50 (SK-MEL-5) [nM],EC50 (COLO 205) [nM],EC50 (KB) [nM]
COC(=O)[C@@]12OC[C@]34[C@H]([C@@H](O)[C@@H]1O)[C@@]1(C)[C@H](O)C(=O)C[C@@H](C)[C@@H]1C[C@H]3OC(=O)[C@H](OC(=O)/C=C(\C)C(C)(C)OC(C)=O)[C@@H]24 [BRUCEANOL G],4080,440,550
COC(=O)[C@@]12OC[C@]34[C@H]([C@@H](O)[C@@H]1O)[C@@]1(C)C(=O)[C@@H](O)C[C@@H](C)[C@@H]1C[C@H]3OC(=O)[C@H](OC(=O)/C=C(\C)C(C)C)[C@@H]24 [BRUCEANOL H],6370,–,–

# Reference: ChEMBL document CHEMBL1150100, “Bruceanols G and H cytotoxic quassinoids from Brucea antidysenterica” (1995)
